Key:
[1] = tested on: human adipocytes; experiment: Human adipocyte [Ca2+]i, fura-2 imaging (Example 4); format: cell-based
[2] = tested on: human adipocytes; experiment: FAS activity in human adipocytes (Example 4); format: cell-based
Method: A human adipocyte cell line and primary-cultured human adipocytes were both used as cell models in this study. The human adipocyte cell line was differentiated from human preadipocytes obtained from Zen-Bio Inc. (Research Triangle Park, N.C.). Human preadipocytes were inoculated in Dulbecco's Modified Eagle' Medium (DMEM)/Ham' F-10 medium (F-10) (1:1, v/v) containing 10% fetal bovine serum (FBS), 15mM Hepes and antibiotics at a density of 30,000 cells/cm^2. Confluent monolayers of preadipocytes were induced to differentiate with a standard differentiation medium consisting of DMEM/F-10 (1:1, v/v) medium supplemented with 15 mM Hepes, 3% FBS, 33 μM biotin, 17 μM pantothenate, 100 nM insulin, 0.25 mM methylisobutylxanthine (MIX), 1 μM dexamethasome, 1 μM BRL49653 and antibiotics. Preadipocytes were maintained in this differentiation medium for 3 days and subsequently cultured in adipocyte medium in which BRL49653 and MIX were withdrawn. Cultures were re-fed every 2-3 days (Shi, H., et al., “Role of intracellular calcium in human adipocyte differentiation,” Phyisol. Genomics. (2000) pp. 75-82, vol. 3.). Primary-cultured human adipocytes were derived from human subcutaneous adipose tissue obtained from patients undergoing abdominal plastic surgery with no known history of metabolic disorders. This protocol was approved by the Institutional Review Board for Human Subjects and the Committee for Research Participation of the University of Tennessee. Adipocytes were isolated according to the teachings of (Shi, H., et al., “Role of the sulfonylurea receptor in regulating human adipocyte metabolism,” FASEB. J. (1999) pp. 1833-38, vol. 13.). […] FAS and GPDH activity was determined spectrophotometrically in crude cytosolic extracts of human adipocytes as previously described (Shi, H., et al., “Role of the sulfonylurea receptor in regulating human adipocyte metabolism,” FASEB. J. (1999) pp. 1833-38, vol. 13). […]

[3] = tested on: human adipocytes; experiment: FAS mRNA expression in human adipocytes, Northern blot (Example 4); format: cell-based
Method: A human adipocyte cell line and primary-cultured human adipocytes were both used as cell models in this study. The human adipocyte cell line was differentiated from human preadipocytes obtained from Zen-Bio Inc. (Research Triangle Park, N.C.). Human preadipocytes were inoculated in Dulbecco's Modified Eagle' Medium (DMEM)/Ham' F-10 medium (F-10) (1:1, v/v) containing 10% fetal bovine serum (FBS), 15mM Hepes and antibiotics at a density of 30,000 cells/cm^2. Confluent monolayers of preadipocytes were induced to differentiate with a standard differentiation medium consisting of DMEM/F-10 (1:1, v/v) medium supplemented with 15 mM Hepes, 3% FBS, 33 μM biotin, 17 μM pantothenate, 100 nM insulin, 0.25 mM methylisobutylxanthine (MIX), 1 μM dexamethasome, 1 μM BRL49653 and antibiotics. Preadipocytes were maintained in this differentiation medium for 3 days and subsequently cultured in adipocyte medium in which BRL49653 and MIX were withdrawn. Cultures were re-fed every 2-3 days (Shi, H., et al., “Role of intracellular calcium in human adipocyte differentiation,” Phyisol. Genomics. (2000) pp. 75-82, vol. 3.). Primary-cultured human adipocytes were derived from human subcutaneous adipose tissue obtained from patients undergoing abdominal plastic surgery with no known history of metabolic disorders. This protocol was approved by the Institutional Review Board for Human Subjects and the Committee for Research Participation of the University of Tennessee. Adipocytes were isolated according to the teachings of (Shi, H., et al., “Role of the sulfonylurea receptor in regulating human adipocyte metabolism,” FASEB. J. (1999) pp. 1833-38, vol. 13.). Briefly, adipose tissue was first washed several times with Hank's Balanced Salt Solution, minced into small pieces and digested with 1 mg/ml type1 collagenase in a shaking water bath at 37° C. for 30 min. […] ZERO-Dscan software (Scanalytics, Inc, Fairfax, Va.) was used to quantitatively analyze these images.

[4] = tested on: human adipocytes; experiment: GPDH activity in human adipocytes (Example 4); format: cell-based
Method: A human adipocyte cell line and primary-cultured human adipocytes were both used as cell models in this study. The human adipocyte cell line was differentiated from human preadipocytes obtained from Zen-Bio Inc. (Research Triangle Park, N.C.). Human preadipocytes were inoculated in Dulbecco's Modified Eagle' Medium (DMEM)/Ham' F-10 medium (F-10) (1:1, v/v) containing 10% fetal bovine serum (FBS), 15mM Hepes and antibiotics at a density of 30,000 cells/cm^2. Confluent monolayers of preadipocytes were induced to differentiate with a standard differentiation medium consisting of DMEM/F-10 (1:1, v/v) medium supplemented with 15 mM Hepes, 3% FBS, 33 μM biotin, 17 μM pantothenate, 100 nM insulin, 0.25 mM methylisobutylxanthine (MIX), 1 μM dexamethasome, 1 μM BRL49653 and antibiotics. Preadipocytes were maintained in this differentiation medium for 3 days and subsequently cultured in adipocyte medium in which BRL49653 and MIX were withdrawn. Cultures were re-fed every 2-3 days (Shi, H., et al., “Role of intracellular calcium in human adipocyte differentiation,” Phyisol. Genomics. (2000) pp. 75-82, vol. 3.). Primary-cultured human adipocytes were derived from human subcutaneous adipose tissue obtained from patients undergoing abdominal plastic surgery with no known history of metabolic disorders. This protocol was approved by the Institutional Review Board for Human Subjects and the Committee for Research Participation of the University of Tennessee. Adipocytes were isolated according to the teachings of (Shi, H., et al., “Role of the sulfonylurea receptor in regulating human adipocyte metabolism,” FASEB. J. (1999) pp. 1833-38, vol. 13.). Briefly, adipose tissue was first washed several times with Hank's Balanced Salt Solution, minced into small pieces and digested with 1 mg/ml type1 collagenase in a shaking water bath at 37° C. for 30 min. Adipocytes were then filtered through a sterile 500 μm nylon mesh and cultured in Dulbecco's Modified Eagle's Medium (DMEM) supplemented with 1% fetal bovine serum (FBS), 100 UI/ml penicillin, 100 μg/ml streptomycin and 50 μg/ml gentamicin. Cells were cultured in suspension and maintained in a thin layer at the top of culture media, which were changed every day. Cells were maintained viable and metabolically responsive under this culture condition for 7 days. FAS and GPDH activity was determined spectrophotometrically in crude cytosolic extracts of human adipocytes as previously described (Shi, H., et al., “Role of the sulfonylurea receptor in regulating human adipocyte metabolism,” FASEB. J. (1999) pp. 1833-38, vol. 13). Human adipocytes were homogenized in 250 mmol/L sucrose solution containing 1 mmol/L ethylenediamine-tetraacticacid (EDTA), 1 mmol/L dithiothreitol (DTT), and 100 μmol/L phenylmethylsulfonyl fluoride (PMSF) (pH 7.4). […]

[5] = tested on: nVDR; conditions: cited from earlier work
[6] = tested on: human adipocytes; experiment: Isoproterenol-stimulated lipolysis in human adipocytes (Example 4); format: cell-based
Method: (§1) A human adipocyte cell line and primary-cultured human adipocytes were both used as cell models in this study. The human adipocyte cell line was differentiated from human preadipocytes obtained from Zen-Bio Inc. (Research Triangle Park, N.C.). Human preadipocytes were inoculated in Dulbecco's Modified Eagle' Medium (DMEM)/Ham' F-10 medium (F-10) (1:1, v/v) containing 10% fetal bovine serum (FBS), 15mM Hepes and antibiotics at a density of 30,000 cells/cm^2. Confluent monolayers of preadipocytes were induced to differentiate with a standard differentiation medium consisting of DMEM/F-10 (1:1, v/v) medium supplemented with 15 mM Hepes, 3% FBS, 33 μM biotin, 17 μM pantothenate, 100 nM insulin, 0.25 mM methylisobutylxanthine (MIX), 1 μM dexamethasome, 1 μM BRL49653 and antibiotics. Preadipocytes were maintained in this differentiation medium for 3 days and subsequently cultured in adipocyte medium in which BRL49653 and MIX were withdrawn. Cultures were re-fed every 2-3 days (Shi, H., et al., “Role of intracellular calcium in human adipocyte differentiation,” Phyisol. Genomics. (2000) pp. 75-82, vol. 3.). Primary-cultured human adipocytes were derived from human subcutaneous adipose tissue obtained from patients undergoing abdominal plastic surgery with no known history of metabolic disorders. […]

[7] = tested on: human adipocytes; experiment: Intracellular Ca2+ in primary cultures of human adipocytes (fura-2 fluorometry); format: cell-based; conditions: read-out: EC50 for increase in intracellular Ca2+
Method: Human subcutaneous adipose tissue was obtained from patients with no known history of metabolic disorders undergoing abdominal plastic surgery. Adipocytes were isolated by washing, mincing, collagenase digestion, and filtration as described previously and cultured in Dulbecco's modified Eagle's medium supplemented with 1% fetal bovine serum, penicillin (100 IU/ml), streptomycin (100 μg/ml), and gentamicin (50 μg/ml). Cells were cultured in suspension and maintained in a thin layer at the top of the culture media, which was changed every day. Cells were studied about 72 hours after isolation and were serum-starved prior to study.
Intracellular Ca^2+ was determined fluorometrically as described previously. Cells were washed with HEPES-buffered salt solution loaded with fura-2-acetoxymethyl ester (10 μM) for 45 minutes at 37° C. in the dark with continuous shaking. Cells were then rinsed three times, resuspended, and intracellular Ca^2+ was measured using dual excitation (340 and 380 nm)/single emission (510 nm) fluorometry. After the establishment of a stable baseline, the response to 1,25-(OH)2-D or parathyroid hormone (10 pM-100 nM) or their respective vehicles was determined. Digitonin (25 μM) and Tris/EGTA (100 mM, pH 8.7) were used to for calibration to calculate the final intracellular Ca^2+.

[8] = tested on: human adipocytes; experiment: Forskolin-stimulated lipolysis (glycerol release) in human adipocytes; format: cell-based; conditions: data not shown
[9] = tested on: human adipocytes; experiment: Basal lipolysis (glycerol release) in human adipocytes (Example 4); format: cell-based
Method: as §1

With C=C1/C(=C\C=C2/CCC[C@]3(C)[C@@H]([C@H](C)CCCC(C)(C)O)CC[C@@H]23)C[C@@H](O)C[C@H]1O [1β,25-(OH)2-D3, 1β,25-dihydroxyvitamin D3] the “effect of pre-treatment on 1α,25-(OH)2-lumisterol3-induced increases in [Ca2+]i” value ([1]; pre-treatment of human adipocytes) was “completely prevented”, the “effect of pretreatment on stimulation of FAS activity” value ([2]; pretreatment of human adipocytes) was “completely prevented” and the “effect on stimulation of FAS mRNA expression” value [3] was “completely blocked”. For the same compound, the “effect on 1α,25-(OH)2-D3 stimulated GPDH activity” value ([4]; human adipocytes) was “little effect”, the “effect on 1α,25-(OH)2-lumisterol3 stimulated GPDH activity” value ([4]; human adipocytes) was “markedly inhibited” and the “effects on nVDR” value [5] was “no effects”.

Work on CC(C)NCC(O)c1ccc(O)c(O)c1 (centres unmarked) [isoproterenol] yielded an increase in lipolysis [6] of 3.2 fold.

For parathyroid hormone [PTH], the EC50 [7] was ~10 nM and the effect on lipolysis [8] was “little effect”.

For C=C1/C(=C\C=C2/CCC[C@]3(C)[C@@H]([C@H](C)CCCC(C)(C)O)CC[C@@H]23)C[C@@H](O)C[C@@H]1O [1α,25-(OH)2-D3, 1α,25-Dihydroxyvitamin D3], the “[Ca2+]i response in human adipocytes” value [1] was “significant increase of [Ca^2+]i in human adipocyte in a dose-dependent manner”, the “increase in adipocyte FAS activity” value ([2]; 5 nM, over 48 hrs) was 40% and the “increase in FAS mRNA expression” value [3] was 2 fold. The “increase in human adipocyte GPDH activity” value ([4]; 5 nM) was 50%.

For C[C@H](CCCC(C)(C)O)[C@H]1CC[C@H]2C3=CC=C4C[C@@H](O)C[C@H](O)[C@@]4(C)[C@@H]3CC[C@]12C [1α,25-(OH)2-lumisterol3, 1α,25-dihydroxylumisterol3], the “[Ca2+]i response in human adipocytes” value [1] was “marked dose-responsive increases”, the “increase in FAS activity” value ([2]; human adipocytes) was 2.5 fold and the “increase in FAS mRNA expression” value [3] was 2.5 fold. The “stimulation of GPDH activity” value ([4]; human adipocytes) was 2.8 fold, the “inhibition of adipocyte basal lipolysis” value [9] was 50% and the “inhibition of isoproterenol-stimulated lipolysis” value [6] was 53%. For the same compound, the “binding affinity to nVDR” value [5] was “low binding affinity”.

— patent US7704979B2, “Materials and methods for the treatment or prevention of obesity” (The University of Tennessee Research Foundation, priority 2000, dated 2010)
